Patent publication US20200093801A1, “NEW METHODS FOR THE TREATMENT OF MULTIPLE SCLEROSIS” (Novartis AG, priority 2017, published 2020)

System: Cuprizone-Induced Demyelination in Mice
Experiment: Cuprizone-induced demyelination in mice at 20 mg/kg and 60 mg/kg, MRI
Assay type: in vivo, Mice (C57BL/6J)
From the text: Studies described below were approved by the Swiss Cantonal Veterinary Authority of Basel City, Switzerland, under the license number 2711. Mice (C57BL/6J) were commercially purchased from Charles River Laboratories, Germany or obtained from Novartis Pharma AG breeding colonies (8-9 weeks old, females). All the animals were allowed to adapt for 7 days prior the start of the experiment and housed in IVC racks (max. 4 mice/XJ Type cage). The animals were given access to food and water ad libitum. Animals were treated with cuprizone for 5 weeks. Cuprizone (Bis(cyclohexanone)oxaldihydrazone, Sigma-Aldrich) was mixed into rodent food pellets (0.2% w/w) by Provimi Kliba AG, Switzerland. Therapeutic treatment of animals after cuprizone was performed for 2 weeks on normal food with 20 and 60 mg/kg of BLZ945, qd, p.o. 10 ml/kg. BLZ945 was prepared in vehicle consisting of 0.5% methylcellulose in water and 0.1% Tween-80. Before killing 3 h after last BLZ945 dosing animals were perfused transcardially by phosphate-buffered saline (PBS), brains isolated and fixed in 4% paraformaldehyde (PFA) for 48 h at 4° C.
Measurements were performed with a Biospec 70/30 spectrometer (Bruker Medical Systems, Ettlingen, Germany) operating at 7 T. The operational software of the scanner was Paravision 5.1 (Bruker). Images were acquired from anesthetized, spontaneously breathing animals using a mouse brain circularly polarized coil (Bruker, Model 1P T20063V3; internal diameter 23 mm) for radiofrequency excitation and detection; neither cardiac nor respiratory triggering was applied. Following a short period of introduction in a box, animals were maintained in anesthesia with 1.5% isoflurane (Abbott, Cham, Switzerland) in oxygen, administered via a nose cone. During MRI signal acquisitions, animals were placed in prone position in a cradle made of Plexiglas, the body temperature was kept at 37±1° C. using a heating pad, and the respiration was monitored.
A T2-weighted, two-dimensional multislice RARE (Rapid Acquisition with Relaxation Enhancement) sequence (Hennig et al., 1986) was used for determining the anatomical orientation and for evaluating signal intensities. This was followed by a two-dimensional multislice gradient-recalled FLASH (Fast Low-Angle Shot) acquisition (Haase et al., 1986) for assessment of MTR. As both sequences had the same anatomical parameters, the choice of the regions-of-interest for evaluations was performed on the RARE images and then transferred to the FLASH images. The parameters of the acquisitions were the following: (a) RARE sequence: effective echo time 80 ms, repetition time 3280 ms, RARE factor 16, 12 averages, field of view 20×18 mm^2, matrix size 213×192, pixel size 0.094×0.094 mm^2, slice thickness 0.5 mm, 15 adjacent slices. Hermite pulses of duration/bandwidth 1 ms/5400 Hz and 0.64 ms/5344 Hz were used for radiofrequency excitation and refocusing, respectively. Fat suppression was achieved by a gauss512 pulse of 2.61 ms/1051 Hz duration/bandwidth followed by a 2-ms-long gradient spoiler. The total acquisition time was of 7 min 52.3 s; (b) FLASH sequence: echo time 2.8 ms, repetition time 252.8 ms, 4 averages, field of view 20×18 mm^2, matrix size 213×192, pixel size 0.094×0.094 mm^2, slice thickness 0.5 mm, 15 adjacent slices. A hermite pulse of 0.9 ms/6000 Hz duration/bandwidth and flipangle 30° was used for radiofrequency excitation. MTR contrast was introduced by a gauss pulse of 15 ms/182.7 Hz duration/bandwidth applied with a radiofrequency peak amplitude of 7.5 μT and an irradiation offset of 2500 Hz. The acquisition was then repeated with the same parameters but without the introduction of the MTR contrast. MTR was then computed using the formula MTR=(S0−SMTR)/S0, where S0 and SMTR represent respectively the signal intensities in the FLASH acquisitions without and with the introduction of the MTR contrast. The total acquisition time for both data sets was of 6 min 31.6 seconds.

[1] = 60 mg/kg p.o. qd, therapeutic mode after 5 weeks cuprizone
[2] = 20 and 60 mg/kg p.o. qd, 2-week therapeutic treatment after 5 weeks 0.2% cuprizone, FIG. 9 legend

CNC(=O)c1cc(Oc2ccc3nc(N[C@@H]4CCCC[C@H]4O)sc3c2)ccn1 [BLZ945, 4-(2-((1R,2R)-2-hydroxycyclohexylamino)benzothiazol-6-yloxy)-N-methylpicolinamide]
Remyelination by MRI, corpus callosum/external capsule [1]: significantly enhanced remyelination
Remyelination by MRI, cortex [1]: significantly enhanced remyelination
Remyelination by MRI, striatum [1]: only a trend
MRI contrast in corpus callosum [2]: not corpus callosum
MRI contrast in cortex [2]: reduces MRI contrast
MRI contrast in striatum [2]: reduces MRI contrast
Remyelination as detected by MRI (lower doses (20 and 60 mg/kg), short-term treatment for only 1 week, 5-week cuprizone model): beneficial effects on remyelination
